Results: patent US20090054507A1, “CONTROL OF MALIGNANT CELLS BY KINASE INHIBITION” (CLEVELAND STATE UNIVERSITY, priority 2006, published 2009)

Tests used:
MCF-7 cells = assay: Anchorage independence in soft agar, MCF-7; type: cell-based, human; settings: DMAT 10 μM, one week
SW-480 cells [1] = assay: Anchorage independence in soft agar, SW-480; type: cell-based, human; settings: DMAT 10 μM, one week
MCF-7 xenografts = assay: In vivo therapy of MCF-7 xenografts, tumor volume; design: species or system mice
From the text: Creation of the xenografts MCF-7, SW-480 and WM-164. Immunodeficient male and female athymic nude nu/nu mice were used, provided and housed by Dr. Lindner, DJ from Taussig Cancer Center, Cleveland Clinic and Case Western Reserve University. Mice were checked every day. Mice were housed in filtered air flow cabinets with autoclaved bedding at a density of 5 mice/cage. They were fed autoclaved Purina Lab Rodent Chow® 5010 and HCl-acidified distilled water ad libitum and were placed in rooms with controlled temperature, humidity and 12-hr light-dark cycles. Procedures involving animals and their care were conducted in conformity with the institutional guidelines that are in compliance with national and international laws and policies (EEC Council Directive 86/609, OJL 358, Dec. 1, 1987, and the National Institutes of Health Guide for the Care and Use of Laboratory, Animals, NIH Publication 85-23, 1985).
For engraftment, cells in cell culture media were injected. […] Cells were counted with a hemacytometer using Trypan blue (only live cells were counted). […]
In vivo therapy with DMAT of MCF-7 xenografts. […] Tumor diameters were measured using a caliper and tumor volume was calculated using the prolate-spheroid formula. […]

SW-480 cells [2] = assay: Annexin V apoptosis/necrosis assay, SW-480; type: cell-based, human
Procedure: (§1) Apoptosis Assays using Flow Cytometry with Annexin V-FITC and propidium iodide (PI). For induction of typical apoptosis, cells were grown in the presence of 1 μM staurosporine (Sigma-Aldrich) for 6 hours. The staurosporine treated cells were stained as follows: control 1 with PI, control 2 with Annexin V-FITC and control 3 both PI and Annexin V-FITC in order to have the brightest controls for compensation and proper collection of the flow cytometry data. Cell necrosis was induced by heat shock (65° C. for 30 minutes). The stained control, both PI and Annexin V-FITC labeled, was then used as the reference in establishing the level of apoptosis induced by the treatments. Data was collected on logarithmic modes, two-colors. Annexin V-FITC corresponds to FL1 H channel, and PI to FL3H or FL2H channels.
(§2) Annexin V-FITC and PI apoptosis assay staining protocol. Apoptosis Annexin V-FITC and PI kit from BD Biosciences, CA, USA, was used. 10^5-10^6 cells were stained with 50 μg/ml PI and with 0.5 μg/ml FITC-labeled Annexin V using the staining protocol provided by the supplier. Samples were then analyzed immediately by flow cytometry.

WM-164 cells = assay: Annexin V apoptosis/necrosis assay, WM-164; type: cell-based, human
Procedure: as §1, §2

CN(C)c1nc2c(Br)c(Br)c(Br)c(Br)c2[nH]1 [DMAT, 2-dimethylamino-4,5,6,7-tetrabromo-1H-benzimidazole]
colonies in soft agar (MCF-7 cells): much smaller and fewer colonies
colonies in soft agar (SW-480 cells [1]): much smaller and fewer colonies
tumor volume (MCF-7 xenografts; DMAT 10 mg/kg (in DMSO) per day, 13 day period, control about 50 to about 1750 mm^3): remarkably stable size and nearly no increase
response of xenograft tumors to treatment (summary) (MCF-7 xenografts; mouse, in vivo): tumor ablation
level of apoptotic cells (SW-480 cells [2]; 10 μM DMAT, 24 hours, control 1.9%): 17.5%
level of necrotic cells (SW-480 cells [2]; 10 μM DMAT, 24 hours, control 3.5%): 1.9%
level of apoptotic cells (SW-480 cells [2]; 20 μM DMAT): 27.6%
level of necrotic cells (SW-480 cells [2]; 20 μM DMAT): 2.4%
level of necrotic cells (WM-164 cells; 10 μM DMAT, 24 hours, control 4.8%): 2.0%
level of apoptotic cells (WM-164 cells; 10 μM DMAT, 24 hours, control 16.9%): 36.8%
level of apoptic cells (WM-164 cells; 20 μM DMAT): 26.8%
level of necrotic cells (WM-164 cells; 20 μM DMAT): 4.1%
